In PMC5515971, “Utility of spherical human liver microtissues for prediction of clinical drug-induced liver injury” (Archives of Toxicology, 2017):
Where two headings read alike, the source gives them in different places.

What was measured:
[1] = test system: primary human hepatocytes (PHH); experiment: Cytotoxicity (cellular ATP, CellTiter-Glo) in 2D plated primary human hepatocytes, 48 h treatment; assay type: cell-based; conditions: for IC50: Hepatocyte, 2D primary human hepatocytes (lot IZT), 48 h treatment, total cellular ATP content, read-out: Geomean IC50;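 as to all read-outs here: 384-well plates, luminescence read-out, normalized to vehicle wells with 1% DMSO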
[2] = cited from earlier work
[3] = cited from earlier work; for P/N (DILI positive / DILI negative): P = DILI severity categories 1, 2 and 3, N = categories 4 and 5; for DILI category: clinical, from literature and product labels
[4] = ref Chen et al 2016 / Chen et al 2011; cited from earlier work
[5] = Clinical DILI severity categorization and DILI pattern; conditions: P = DILI severity categories 1, 2 and 3; N = categories 4 and 5
[6] = test system: 3D human liver microtissues (hLiMT); experiment: Cytotoxicity (cellular ATP, CellTiter-Glo 2.0) in 3D human liver microtissues, 14 day repeat-dose treatment; conditions: for IC50: Homo sapiens, Hepatocyte, 336 h, read-out: Geomean IC50 [µM]
[7] = human Cmax total, used for IC50/Cmax
[8] = human total plasma Cmax, ref literature values
[9] = Table 1, ref Garside et al. (2014)
[10] = clinical DILI severity category, 1-5
[11] = table S-5, ref Garside et al. 2014

Compound | IC50 [1] | Cmax [2, 7] | Cmax [2, 8] | P/N (DILI positive / DILI negative) [3] | DILI severity category [3, 9] | DILI severity category [3, 10] | DILI category ([3]; ref Garside et al. 2014) | FDA DILI Classification DILI severity score [4] | LTKB DILI classification [4] | P/N (DILI positive / DILI negative) [5] | IC50 [6] | DILI severity category [3, 11] | classification at 10× MOS threshold ([1]; PHH 48 h) | classification at 10× MOS threshold ([6]; hLiMT 14 days) | classification at 100 μM IC50 threshold ([1]; PHH 48 h) | classification at 100 μM IC50 threshold ([6]; hLiMT 14 days)
CCN(CC)C(=O)/C(C#N)=C/c1cc(O)c(O)c([N+](=O)[O-])c1 [Entacapone] | 100 µM | 3280 nM | 3280 nM | N | 4: Enzyme elevations in clinic (N = 16) | 4. Enzyme Elevations in Clinic | 4. Enzyme Elevations in Clinic | 0 | less DILI concern | N | 152 µM |  |  |  |  | 
Cc1c(-c2ccccc2)oc2c(C(=O)OCCN3CCCCC3)cccc2c1=O [Flavoxate] | > 10 µM | 1790 nM | 1790 nM | N | 5: No DILI (N = 25) | 5. No DILI | 5. No DILI | 0 | no DILI concern | N | > 10 µM |  |  |  |  | 
CCOC(=O)c1ncn2c1CN(C)C(=O)c1cc(F)ccc1-2 [Flumazenil] | > 250 µM | 1120 nM | 1120 nM | N | 5: No DILI (N = 25) | 5. No DILI | 5. No DILI | 0 | no DILI concern | N | > 250 µM |  |  |  |  | 
C[N+](C)(C)C[C@H](O)CC(=O)[O-] [Levocarnitine] | > 10000 µM | 85700 nM | 85700 nM | N | 5: No DILI (N = 25) | 5. No DILI | 5. No DILI |  | no DILI concern | N | > 10000 µM | 5. No DILI |  |  |  | 
CNC1(C)C2CCC(C2)C1(C)C (stereo not shown) [Mecamylamine] | > 50 µM |  | 140 nM | N | 5: No DILI (N = 25) | 5. No DILI | 5. No DILI | 0 | no DILI concern | N | > 25 µM |  |  |  |  | 
Cc1ccc(Cl)c(Nc2ccccc2C(=O)O)c1Cl [Meclofenamate] | 292 µM | 81100 nM | 81100 nM | N | 4: Enzyme elevations in clinic (N = 16) | 4. Enzyme Elevations in Clinic | 4. Enzyme Elevations in Clinic | 3 | Ambiguous DILI concern | N | ~23.1 µM |  | false positive | false positive |  | 
CC(C)(C)NCC(O)COc1cccc2c1CC(O)C(O)C2 (stereo not shown) [Nadolol] | > 100 µM | 810 nM | 810 nM | N | 4: Enzyme elevations in clinic (N = 16) | 4. Enzyme Elevations in Clinic | 4. Enzyme Elevations in Clinic | 3 | Ambiguous DILI concern | N | > 100 µM | 4. Enzyme Elevations in Clinic |  |  |  | 
CC(C)(C)NC[C@H](O)COc1ccccc1C1CCCC1 [Penbutolol] | 15.7 µM | 1030 nM | 1030 nM | N | 4: Enzyme elevations in clinic (N = 16) | 4. Enzyme Elevations in Clinic | 4. Enzyme Elevations in Clinic |  | no DILI concern | N | ~39 µM |  |  |  | false positives | false positives
